Laboratory results reported in patent US12208228B2, “Microneedle array comprising a heat-producing element” (LTS LOHMANN THERAPIE-SYSTEME AG, priority 2019, dated 2025).

Experiment: In vitro permeation studies in static vertical Franz cells, microneedle systems pressed into dermatomized minipig skin
Assay type: in vitro ADME, Göttingen Minipigs
Text: The back part of Gottinger Minipighaut (Ellegaard Göttingen Minipigs Agricultural Service, Dalmose, Denmark) was used as the skin. The skin, which is delivered as a so-called full skin without subcutaneous fatty tissue in a frozen state, must first be thawed at room temperature and carefully shaved with plenty of water without using any shaving foam to remove the bristles. The skin is then dermatomized or cut to a layer thickness of 800 μm with the aid of an Acculan 3TI battery-powered electric dermatome (Aesculap AG, Tuttlingen, Germany). Circular punched pieces having a diameter of 25 mm are then knocked out of the pieces of skin treated in this way with the help of a corresponding punching tool, for example, a handle punch and are stored shrink-wrapped in PE bags until further use at −20 degrees Celsius (maximum storage period under these conditions up to 12 months).
The permeation studies were performed in static and vertical Franz cells (Glastechnik Gräfenroda, Germany) with a diffusion area of 1.595 cm^2 and an acceptor volume of 10 ml. The acceptor medium used was phosphate buffer having a pH value of 7.4 according to DAB 10, tempered to 32° C. during the entire permeation time and constantly stirred for uniform mixing of the permeated active ingredient. The acceptor medium was completely replaced by fresh one at the scheduled sampling times. Before the pre-prepared skin punches are clamped in the Franz cells and filled with acceptor, the microneedle systems must first be pressed into the top layer of skin using a manufactured pressure adapter, in the sense of a nail gun with an impulse strength of 150 N/cm^2.
Before filling with the acceptor and inserting the Franz cells into the water bath controlled to a temperature of 32° C., the temperature-controlled cell heads are put on or they are prepared with an active heat pack mixture, see also the figures including explanations.
The analytical determination was carried out by means of HPLC on a C18-Inertsil separation column (250×4.6 mm, 5 μm particle size; VDS Optilab, Berlin) by means of UV detection at 282 nm and at 30 degrees Celsius. A mixture consisting of acetonitrile, methanol and 0.02167 m sodium dihydrogen phosphate solution 10:20:85 (v %/v %/v %) and a pH of 3.2 was used as the eluent. The flow rate was 1.0 ml/min and 20 μl were injected.
The analytical determination was carried out by means of HPLC on a C12-Synergi-Max-RP separation column (150×4.6 mm, 4 μm particle size; Phenomenex, Aschaffenburg) by means of UV detection at 273 nm and at 25 degrees Celsius. A mixture consisting of methanol and HPLC water 40:60 (v %/v %) was used as an eluent. The flow rate was 1.0 ml/min and 20 μl were injected.

## Cn1c(=O)c2c(ncn2C)n(C)c1=O [caffeine, Caffeine]
FIG. 5, inventive example with external heat generation (heatable thermostated-water cell head), period of 8 hours
  lag time: 40 min
FIG. 5, inventive example with heat (heatable cell head) vs reference without heat, 8 hours
  amount or rate of release of API, factor greater than that of the reference: ~2
FIG. 5, reference system without additional heat generation, period of 8 hours
  lag time: 100 min
FIG. 5, reference without heat vs inventive example with heat
  lag time of reference larger than inventive example by a factor: 2.5

## CNS(=O)(=O)Cc1ccc2[nH]cc(CCN(C)C)c2c1 [sumatriptan succinate, Sumatriptan succinate]
FIG. 2, inventive example with external heat generation (heatable thermostated-water cell head), period up to 6 hours
  lag time: 20 min
FIG. 2, inventive example with heat (heatable cell head) vs reference without heat, up to 6 hours
  amount or rate of release of API, factor greater than that of the reference: ~5
FIG. 2, reference system without additional heat generation, period up to 6 hours
  lag time: 40 min
FIG. 2, reference without heat vs inventive example with heat
  lag time of reference larger than inventive example by a factor: 2
FIG. 3, inventive example with external heat generation (heatable thermostated-water cell head), period of 60 minutes
  lag time: 0.5 min
FIG. 3, inventive example with heat (heatable cell head) vs reference without heat, 60 minutes
  amount or rate of release of API, factor greater than that of the reference: ~4
FIG. 3, reference system without additional heat generation, period of 60 minutes
  lag time: 1.0 min
FIG. 3, reference without heat vs inventive example with heat
  lag time of reference larger than inventive example by a factor: 2
FIG. 4, inventive example with commercial heat pack vs reference without heat, up to 6 hours
  amount or rate of release of API, factor greater than that of the reference: ~8
FIG. 4, inventive example with heat from commercial heat pack (Thermopad; pyrophoric iron, activated carbon, sodium chloride), period up to 6 hours
  lag time: 0.1 min
FIG. 4, reference system without additional heat generation, period up to 6 hours
  lag time: 0.4 min
FIG. 4, reference without heat vs inventive example with heat pack
  lag time of reference larger than inventive example by a factor: 4
